The term Ki denotes a dissociation constant, usually derived from enzyme kinetics or from competition with a known ligand.

Ki data for 22 compounds are collected here from patent US10988459B2 (priority 2015, dated 2021).

human RIP1 kinase domain (2-375), sequence (Q13546 2-375): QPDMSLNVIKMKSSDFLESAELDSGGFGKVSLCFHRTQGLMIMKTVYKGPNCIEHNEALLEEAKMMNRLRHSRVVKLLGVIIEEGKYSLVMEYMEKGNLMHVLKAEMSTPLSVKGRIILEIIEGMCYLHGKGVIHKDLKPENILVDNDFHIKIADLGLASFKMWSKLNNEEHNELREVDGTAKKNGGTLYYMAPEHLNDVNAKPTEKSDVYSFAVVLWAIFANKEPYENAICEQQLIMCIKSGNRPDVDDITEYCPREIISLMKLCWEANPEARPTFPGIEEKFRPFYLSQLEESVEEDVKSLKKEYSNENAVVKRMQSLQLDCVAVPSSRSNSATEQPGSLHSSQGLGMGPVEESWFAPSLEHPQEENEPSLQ

The target in the assay is human RIP1 kinase domain (2-375) (Homo sapiens (Human), UniProt Q13546). Kind of assay: biochemical. Type of assay: biochemical. The settings on record: human RIP1 kinase domain (2-375), 50 uM ATP, 2 hours incubation, Transcreener ADP assay; read-out: RIP1 Ki. The gist of the method:
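Ki^app comes from Morrison tight-binding fits of fractional activity versus compound concentration. Activity was read as ADP production, via tracer displacement lowering fluorescence polarization (633 nm laser). Conditions: 2 h, 50 nM insect-cell-expressed enzyme, 50 uM ATP, 30 mM MgCl2, 1 mM DTT, 0.5% DMSO, pH 7.5 Hepes.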
Take `Cc1cc(F)c2c(c1)OC[C@H](NC(=O)c1n[nH]c3c1C[C@H](C(F)(F)F)CC3)C(=O)N2` [Example 89, (R)—N—((S)-6-fluoro-8-methyl-4-oxo-2,3,4,5-tetrahydrobenzo[b][1,4]oxazepin-3-yl)-5-(trifluoromethyl)-4,5,6,7-tetrahydro-1H-indazole-3-carboxamide]: the Ki was 55.4 nM.
With `Cc1ccc2snc(C(=O)N[C@H]3COc4ccccc4N(C)C3=O)c2c1` [Example 90, (S)-5-methyl-N-(5-methyl-4-oxo-2,3,4,5-tetrahydrobenzo[b][1,4]oxazepin-3-yl)benzo[d]isothiazole-3-carboxamide] the figure was 18.6 nM.
Take `CN1C(=O)[C@@H](NC(=O)c2ncn(Cc3ccccc3)n2)CCn2nc(C(F)(F)F)cc21` [Example 91, (S)-1-benzyl-N-(4-methyl-5-oxo-2-(trifluoromethyl)-5,6,7,8-tetrahydro-4H-pyrazolo[1,5-a][1,3]diazepin-6-yl)-1H-1,2,4-triazole-3-carboxamide]: the Ki was found to be 27.1 nM.
With `CN1C(=O)[C@@H](NC(=O)c2n[nH]c3ccc(C4CC4)cc23)COc2ccccc21` [Example 92, (S)-5-cyclopropyl-N-(5-methyl-4-oxo-2,3,4,5-tetrahydrobenzo[b][1,4]oxazepin-3-yl)-1H-indazole-3-carboxamide] the figure was 12.9 nM; with `CN1C(=O)C(NC(=O)c2nnc(Cc3ccccc3)[nH]2)CCCn2nccc21` (stereo not shown) [Example 93, 5-benzyl-N-(4-methyl-5-oxo-4,5,6,7,8,9-hexahydropyrazolo[1,5-a][1,3]diazocin-6-yl)-4H-1,2,4-triazole-3-carboxamide], 381 nM.
For the compound `CN1C(=O)C(NC(=O)c2ncn(Cc3ccccc3)n2)CCCn2nccc21` (stereo not shown) [Example 94, 1-benzyl-N-(4-methyl-5-oxo-4,5,6,7,8,9-hexahydropyrazolo[1,5-a][1,3]diazocin-6-yl)-1H-1,2,4-triazole-3-carboxamide], the Ki is 92.5 nM.
With `CC(c1ccccc1)c1nnc(C(=O)NC2CCCn3nccc3N(C)C2=O)[nH]1` (stereo not shown) [Example 95, N-(4-methyl-5-oxo-4,5,6,7,8,9-hexahydropyrazolo[1,5-a][1,3]diazocin-6-yl)-5-(1-phenylethyl)-4H-1,2,4-triazole-3-carboxamide] the figure was 4300 nM; with `CN1C(=O)C(NC(=O)c2nnc(Cc3ccc(F)cc3)[nH]2)CCCn2nccc21` (stereo not shown) [Example 96, 5-(4-fluorobenzyl)-N-(4-methyl-5-oxo-4,5,6,7,8,9-hexahydropyrazolo[1,5-a][1,3]diazocin-6-yl)-4H-1,2,4-triazole-3-carboxamide], 801 nM.
In the case of `CN1C(=O)C(NC(=O)c2nnc(Cc3cccc(F)c3F)[nH]2)CCCn2nccc21` (stereo not shown) [Example 97, 5-(2,3-difluorobenzyl)-N-(4-methyl-5-oxo-4,5,6,7,8,9-hexahydropyrazolo[1,5-a][1,3]diazocin-6-yl)-4H-1,2,4-triazole-3-carboxamide] it was 215 nM; in that of `CN1C(=O)[C@@H](NC(=O)c2nnc(Cc3ccc(F)cc3)[nH]2)CCn2nccc21` [Example 98, (S)-5-(4-fluorobenzyl)-N-(4-methyl-5-oxo-5,6,7,8-tetrahydro-4H-pyrazolo[1,5-a][1,3]diazepin-6-yl)-4H-1,2,4-triazole-3-carboxamide], 70.4 nM; in that of `CN1C(=O)[C@@H](NC(=O)c2nnc(Cc3cccc(F)c3F)[nH]2)CCn2nccc21` [Example 99, (S)-5-(2,3-difluorobenzyl)-N-(4-methyl-5-oxo-5,6,7,8-tetrahydro-4H-pyrazolo[1,5-a][1,3]diazepin-6-yl)-4H-1,2,4-triazole-3-carboxamide], 34.6 nM.
With `CC(c1ccccc1)c1nnc(C(=O)N[C@H]2CCn3nccc3N(C)C2=O)[nH]1` (stereo partly drawn) [Example 100, N—((S)-4-methyl-5-oxo-5,6,7,8-tetrahydro-4H-pyrazolo[1,5-a][1,3]diazepin-6-yl)-5-(1-phenylethyl)-4H-1,2,4-triazole-3-carboxamide] the figure was 189 nM; with `CN1C(=O)[C@@H](NC(=O)c2cc(Oc3ccccc3)ccn2)CCn2nccc21` [Example 101, (S)—N-(4-methyl-5-oxo-5,6,7,8-tetrahydro-4H-pyrazolo[1,5-a][1,3]diazepin-6-yl)-4-phenoxypicolinamide], 189 nM; with `CN1C(=O)C(NC(=O)c2nnc(Cc3ccccc3)[nH]2)CCCn2cncc21` (stereo not shown) [Example 102, 5-benzyl-N-(1-methyl-2-oxo-1,2,3,4,5,6-hexahydroimidazo[1,5-a][1,3]diazocin-3-yl)-4H-1,2,4-triazole-3-carboxamide], 335 nM.
For the compound `CN1C(=O)C(NC(=O)c2ncn(Cc3ccccc3)n2)CCCn2cncc21` (stereo not shown) [Example 103, 1-benzyl-N-(1-methyl-2-oxo-1,2,3,4,5,6-hexahydroimidazo[1,5-a][1,3]diazocin-3-yl)-1H-1,2,4-triazole-3-carboxamide], the Ki came out at 124 nM.
In the case of `CN1C(=O)C(NC(=O)c2ncn(Cc3ccccc3)n2)CCCn2nc(C3CC3)cc21` (stereo not shown) [Example 104, 1-benzyl-N-(2-cyclopropyl-4-methyl-5-oxo-4,5,6,7,8,9-hexahydropyrazolo[1,5-a][1,3]diazocin-6-yl)-1H-1,2,4-triazole-3-carboxamide] it was 149 nM.
With `CN1C(=O)C(NC(=O)c2nnc(Cc3ccccc3)[nH]2)CCCn2nc(C3CC3)cc21` (stereo not shown) [Example 105, 5-benzyl-N-(2-cyclopropyl-4-methyl-5-oxo-4,5,6,7,8,9-hexahydropyrazolo[1,5-a][1,3]diazocin-6-yl)-4H-1,2,4-triazole-3-carboxamide] the figure was 262 nM; with `CN1C(=O)[C@@H](NC(=O)c2cc3c(cn2)COC3(C)CC(F)(F)F)CCn2nccc21` (stereo partly drawn) [Example 106, 1-methyl-N—((S)-4-methyl-5-oxo-5,6,7,8-tetrahydro-4H-pyrazolo[1,5-a][1,3]diazepin-6-yl)-1-(2,2,2-trifluoroethyl)-1,3-dihydrofuro[3,4-c]pyridine-6-carboxamide], 834 nM; with `Cc1cnn2c1N(C)C(=O)C(NC(=O)c1ncn(Cc3ccccc3)n1)CC2` (stereo not shown) [Example 107, 1-benzyl-N-(3,4-dimethyl-5-oxo-5,6,7,8-tetrahydro-4H-pyrazolo[1,5-a][1,3]diazepin-6-yl)-1H-1,2,4-triazole-3-carboxamide], 69.7 nM.
In the case of `CN1C(=O)C(NC(=O)c2nnc(Cc3ccccc3)[nH]2)CCn2nc3ccccc3c21` (stereo not shown) [Example 108, 5-benzyl-N-(1-methyl-2-oxo-2,3,4,5-tetrahydro-1-[1,3]diazepino[1,2-b]indazol-3-yl)-4H-1,2,4-triazole-3-carboxamide] it was 133 nM; in that of `CN1C(=O)C(NC(=O)c2nnc(Cc3ccccc3)[nH]2)CCn2c1nc1ccccc12` (stereo not shown) [Example 109, 5-benzyl-N-(1-methyl-2-oxo-2,3,4,5-tetrahydro-1H-benzo[4,5]imidazo[1,2-a][1,3]diazepin-3-yl)-4H-1,2,4-triazole-3-carboxamide], 124 nM; in that of `CN1C(=O)C(NC(=O)c2ncn(Cc3ccccc3)n2)CCn2nc3ccccc3c21` (stereo not shown) [Example 110, 1-benzyl-N-(1-methyl-2-oxo-2,3,4,5-tetrahydro-1H-[1,3]diazepino[1,2-b]indazol-3-yl)-1H-1,2,4-triazole-3-carboxamide], 65.2 nM.
